Laboratory results as given in US4459417A, “Process for preparing spectinomycin analogs: N-demethylation of spectinomycin or its analogs and realkylation of the intermediates” (The Upjohn Company, priority 1983, dated 1984).
Converted amounts (≈) assume the structure as drawn. Where a name gives a salt, the structure may show the parent alone.

Tests used:
Experiment in all cases: Minimum inhibitory concentration in vitro
Format in all cases: cell-based
S. aureus UC 76 = conditions: for MIC: Staphylococcus aureus, UC76
E. coli UC 45 = conditions: for MIC: Escherichia coli, UC45
K. pneumoniae UC 58 = conditions: for MIC: Klebsiella pneumoniae, UC58
Ps. aeruginosa UC 95 = conditions: for MIC: Pseudomonas aeruginosa, UC95
S. faecalis UC 694 = conditions: for MIC: Enterococcus faecalis, UC694
P. vulgaris UC 93 = conditions: for MIC: Proteus vulgaris, UC93
P. stuartii UC 6570 = conditions: for MIC: Providencia stuartii, UC6570
S. typhi UC 215 = conditions: for Minimum Inhibitory Concentration: in vitro, S. typhi UC 215; for MIC: Salmonella enterica, read-out: Minimum Inhibitory Concentration
P. mirabilis UC 6671 = conditions: for MIC: Proteus mirabilis, UC6671
S. marcescens UC 131 = conditions: for MIC: Serratia marcescens, UC131
S. flexneri UC 143 = conditions: Shigella flexneri, UC143
S. schottmuelleri UC 126 = test system: S. schottmuelleri UC 126

Compound | Minimum Inhibitory Concentration (S. aureus UC 76) | Minimum Inhibitory Concentration (K. pneumoniae UC 58) | Minimum Inhibitory Concentration (S. faecalis UC 694) | Minimum Inhibitory Concentration (P. vulgaris UC 93) | Minimum Inhibitory Concentration (S. typhi UC 215) | Minimum Inhibitory Concentration (P. mirabilis UC 6671) | Minimum Inhibitory Concentration (S. marcescens UC 131) | MIC (S. aureus UC 76) | MIC (E. coli UC 45) | MIC (K. pneumoniae UC 58) | MIC (Ps. aeruginosa UC 95) | MIC (S. faecalis UC 694) | MIC (P. vulgaris UC 93) | MIC (S. typhi UC 215) | MIC (S. flexneri UC 143) | MIC (P. mirabilis UC 6671) | MIC (S. marcescens UC 131) | MIC (P. stuartii UC 6570) | MIC (S. schottmuelleri UC 126) | other results
mono-N-demethyl-mono-N-ethylspectinomycin dihydrochloride [IIIb] | 31.2 Micrograms/Milliliter | 3.9 Micrograms/Milliliter | 500 Micrograms/Milliliter | 7.8 Micrograms/Milliliter | 125 Micrograms/Milliliter | 15.6 Micrograms/Milliliter | 7.8 Micrograms/Milliliter | – | – | – | – | – | – | – | – | – | – | – | – | Minimum Inhibitory Concentration (E. coli UC 45): 62.5 Micrograms/Milliliter; Minimum Inhibitory Concentration (Ps. aeruginosa UC 95): 31.2 Micrograms/Milliliter; Minimum Inhibitory Concentration (P. stuartii UC 6570): > 500 Micrograms/Milliliter
C[C@@H]1CC(=O)[C@]2(O)O[C@@H]3[C@@H](N)[C@@H](O)[C@@H](N)[C@H](O)[C@H]3O[C@@H]2O1 [IIa, N,N'-didemethylspectinomycin dihydrochloride] | – | – | – | – | – | – | – | 250 µg/mL | > 1000 µg/mL | 125 µg/mL | 250 µg/mL | > 1000 µg/mL | 125 µg/mL | > 1000 µg/mL | 250 µg/mL | 1000 µg/mL | 31.2 µg/mL | – | – | –
Mono-N-demethylspectinomycin dihydrochlorides [IIb] | 15.6 Micrograms/Milliliter | 15.6 Micrograms/Milliliter | 125 Micrograms/Milliliter | 15.6 Micrograms/Milliliter | 62.5 Micrograms/Milliliter | 15.6 Micrograms/Milliliter | 3.9 Micrograms/Milliliter | – | – | – | – | – | – | – | – | – | – | – | – | –
CN[C@@H]1[C@H](O)[C@H](NC)[C@H]2O[C@@]3(O)C(=O)C[C@@H](C)O[C@H]3O[C@@H]2[C@H]1O [Ia, spectinomycin] | – | – | – | – | – | – | – | 7.8 µg/mL (≈ 23.5 µM) | 3.9 to 7.8 µg/mL (≈ 11.7 to 23.5 µM) | 2 to 3.9 µg/mL (≈ 6.02 to 11.7 µM) | 31.2 µg/mL (≈ 93.9 µM) | 31.2 to 62.5 µg/mL (≈ 93.9 to 188 µM) | 7.8 to 15.6 µg/mL (≈ 23.5 to 46.9 µM) | 3.9 to 7.8 µg/mL (≈ 11.7 to 23.5 µM) | 3.9 to 7.8 µg/mL (≈ 11.7 to 23.5 µM) | 3.9 to 7.8 µg/mL (≈ 11.7 to 23.5 µM) | 3.9 to 7.8 µg/mL (≈ 11.7 to 23.5 µM) | 1000 µg/mL (≈ 3010 µM) | 7.8 µg/mL (≈ 23.5 µM) | –
CCN[C@@H]1[C@H](O)[C@H](NCC)[C@H]2O[C@@]3(O)C(=O)C[C@@H](C)O[C@H]3O[C@@H]2[C@H]1O [IIIa, N,N'-didemethyl-N,N'-diethylspectinomycin dihydrochloride] | – | – | – | – | – | – | – | 500 µg/mL | 1000 µg/mL | 31.2 µg/mL | 1000 µg/mL | > 1000 µg/mL | 125 µg/mL | 1000 µg/mL | 31.2 µg/mL | 62.5 µg/mL | 62.5 µg/mL | > 1000 µg/mL | > 1000 µg/mL | –
